According to patent US20250152610A1, “IMIDAZOLATE GOLD COMPOUNDS FOR THE TREATMENT OF LUNG CANCER” (University of Cincinnati, priority 2022, published 2025):

Columns and labels:
[1] = tested on: KRAS-WT lung cancer cells (H1395, H522, H661, H1993, H332, H820) versus KM lung cancer cells (H157, H1264, H2122, H460, A549); experiment: MTT cell viability assay on panel of KRAS-WT and KM lung cancer cell lines; type: cell-based, human; settings: 1 nM to 100 μM; FIGS. 3A-3F; unpaired t test
Description: Experiments were carried out to determine whether DM20 and CS47 are reversible TrxR inhibitors capable of triggering ferroptosis in KRAS-WT lung cancer cells. DM20 and CS47 in concentrations ranging from 1 nM to 100 μM were tested on a panel of KM and KRAS-WT cell lines in MTT cell viability assays. The tested KM cell lines included H157, H1264, H2122, H460, and A549 cells. The tested KRAS-WT cell lines included H1395, H522, H661, H1993, H332, and H820. Auranofin was included as a positive drug control and the human lung […] fibroblast cell line IMR90 was included as a normal, non-transformed cell counterpart. MTT viability and IC50 values were determined, results for which are shown in FIGS. 3A-3F, wherein each line or symbol corresponds to a human […] cell line. Statistics indicate unpaired t test with *, p<0.05, and **, p<0.01.

[2] = tested on: H522 KRAS-WT lung cancer cells; experiment: MTT cell viability rescue with ferrostatin-1, L-cysteine or NAC; type: cell-based, human; settings: 48 hours, DM20 10 μM, CS47 10 uM, auranofin 1 μM; for rescue of cell viability by ferrostatin-1 (Fer-1): FIG. 4A; for rescue of cell viability by cysteine: FIG. 4B; for rescue of cell viability by n-acetyl-cysteine (NAC): FIG. 4C
Description: H522 KRAS-WT lung cancer cells were treated with DM20 (10 μM), CS47 (10 uM), or auranofin (1 μM) in combination with ferrostatin-1, L-cysteine, or n-acetyl-cysteine (all mM, 48 hours of treatment, in quadruplicate). Statistics indicate one-way ANOVA followed by Sidak's multiple comparisons analysis with ns, p>0.05; *, p<0.05: **, p<0.01; ***, p<0.001 and ****, p<0.0001.

GPX4 = settings: H522 KRAS-WT and A546 KM cells, 10 μM, 48 hours; FIG. 5A
Description: H522 KRAS-WT lung cancer cells and A546 KM lung cancer cells were treated with vehicle (negative control), DM20 (10 μM), CS47 (10 μM), and auranofin (1 μM, positive control) for 48 hours. Protein lysates were extracted from the cells and Western blot analysis was carried out to detect expression of TXNRD1 and GPX4 in the cell lines after treatment, with GAPDH expression detected as a control.

[3] = tested on: H193 and H1395 KRAS-WT lung cancer cells; settings: for lipid peroxidation (oxidized C11-BODIPY) in KRAS-WT cells: 10 μM, 48 hours, FIG. 5B; for ferroptosis induction in KRAS-WT lung cancer cells (overall conclusion): taken together from Examples 1-4
Description: H157 and A549 KM lung cancer cells and H193 and H1395 KRAS-WT lung cancer cells were treated with vehicle (negative control), DM20 (10 μM), CS47 (10 μM), or auranofin (1 μM positive control) for 48 hours. Cells were then stained with DAP, oxidized C11-BODIPY, and reduced C11-BODIPY. C11-BODIPY is a ferroptosis lipid sensor that switches from red to green fluorescence upon oxidation.

Row | Compound | sensitivity of KRAS-WT lung cancer cells compared with KM lung cancer cells (MTT viability, IC50) [1] | rescue of cell viability by ferrostatin-1 (Fer-1) [2] | rescue of cell viability by cysteine [2] | rescue of cell viability by n-acetyl-cysteine (NAC) [2] | GPX4 expression after treatment (Western blot) (GPX4) | lipid peroxidation (oxidized C11-BODIPY) in KRAS-WT cells [3] | ferroptosis induction in KRAS-WT lung cancer cells (overall conclusion) [3]
1 | CC(=O)OC[C@H]1O[C@@H]([S-])[C@H](OC(C)=O)[C@@H](OC(C)=O)[C@@H]1OC(C)=O.CCP(CC)CC.[Au+] [auranofin, reference compound] | significantly and selectively more sensitive | can rescue the cell viability | can rescue the cell viability | can rescue the cell viability |  |  | 
2 | Clc1nc[n]([Au][PH](c2ccccc2)(c2ccccc2)c2ccccc2)c1Cl [CS47, 4,5-dichloro-imidazolate-1yl-gold(I)-triphenylphosphane] | significantly and selectively more sensitive | can rescue the cell viability | can rescue the cell viability | can rescue the cell viability | depletes GPX4 expression | induces lipid peroxidation | induce ferroptosis
3 | N#Cc1nc[n]([Au][PH](c2ccccc2)(c2ccccc2)c2ccccc2)c1C#N [DM20, 4,5-dicyano-imidazolate-1yl-gold(I)-triphenylphosphane] | significantly and selectively more sensitive | can rescue the cell viability | can rescue the cell viability | can rescue the cell viability | depletes GPX4 expression | induces lipid peroxidation | induce ferroptosis
